Results on 1 substance are retold here after patent publication US20170246137A1, “SULFESTROL FOR TREATING CANCER” (CHAMAELEO PHARMA BVBA, priority 2012, published 2017).

“And” between values parts separate entries of the source, which are not always exact repeats. Equal entries are not always repeated.

Data set [1] has as its system MCF7. Briefly: In vitro direct cytotoxicity, Cell titer Blue viability, 72 hrs. The protocol:
Cells were maintained in vitro in RPMI 1640 containing 10% (v/v) heat inactivated FBS and 2 mM L-glutamine (growth media) at 37° C. in 5% CO2 and humidified conditions. Cells were harvested, washed, resuspended into growth medium and counted. The cells were re-suspended into assay media (RPMI 1640+1% (v/v) heat inactivated FBS+ and 2 mM L-glutamine) at 0.5-1×10^5 cells/ml (dependent upon cell type) and plated into 96-well assay plates (Corning, black-wall plates) in 50 ul/well aliquots.
Plates were incubated overnight at 37° C. in 5% humidified CO2 prior to addition of the compounds. […] Stocks of all compounds were then serially diluted. Final concentrations to which cells were exposed were 300, 150, 75, 37.5, 18.75, 9.4, 4.7, 2.3, 1.2, 0.6 μM. Positive control was Cisplatin. Cisplatin was diluted in 1% FBS media to give a stock concentration of 1 mM. Cisplatin stock was then serially diluted. Final concentrations to which cells were exposed were 100, 50, 25, 12.5, 6.3, 3.1, 1.6, 0.8, 0.4, 0.2 μM.
Plates were incubated for 72 hrs at 37° C. in 5% humidified CO2 after addition of the compounds. Viability of the cells was assessed with the Cell titer Blue™ (Promega) assay. 10 μl of Cell titer Blue™ reagents was added to each test/blank well. Plates were incubated 3 h at 37° C. in 5% humidified CO2 prior to analysis. Fluorescence was measured with a Flex II station plate reader. Excitation wavelength was 570 nm, emission wave length was 600 nm, cut off was 590 nm. Raw data was processed by GraphPad Prism to calculate mean, standard deviation and IC50 values.
For orientation: The colour change of resazurin is a common sign of viable cells or microbes.

Data set [2] in a line: Concentration of Mono-Sulfestrol in pooled plasma samples, LC-UV quantification. The format is in vivo, male Sprague Dawley rats. The conditions noted are these: 10 mg/kg of the labelled compound, rat, pooled 0.5-8 hrs. The protocol: The concentration of Mono-Sulfestrol in the pooled samples described in Example 6 was quantified by LC-UV quantification.
A calibration standard solution was prepared as 10,000 ng/mL by adding an appropriate amount of Mono-Sulfestrol into 20% acetonitrile/0.1% formic acid in water. The peak area of the standard solution and the sample were measured with the wavelength set at 200 to 360 nm. The concentration levels of Mono-Sulfestrol were estimated using peak area (Area) of the standard and unknown samples and concentration of the standard (Concstd) by the following equation:
Areaunknown/Areastd=Concunknown/Concstd
Concunknown=Concstd·(Areaunknown/Areastd)

Data set [3] in a line: In vitro metabolism in human liver microsomes (STS and CYP). Format: in vitro ADME. Also noted: Clint: unit not given here. The conditions noted are these: for Clint / Contribution to metabolism / Half-life: 5 μM. Here is the method:
In vitro metabolism pathways of DES, Mono-Sulfestrol and Di-Sulfestrol in human liver microsomes were investigated.
Special emphasis was put on desulfatation by steroid sulfatase (STS) and oxidation by cytochrome P (CYP) metabolism. Liver microsomes (Celsis in vitro Technologies) were used at a concentration of 0.5 mg/ml in a volume of 600 μl phosphate buffer pH 7.4. Estrone-3-sulfate was used as positive control.
5 μM of each compound (test and control compound) was added to the liver microsomes and the mixture was incubated at 37° C. for 5, 10, 20, 30, 50, 90 and 120 minutes. After incubation, aliquots of 45 μl were taken which were subsequently quenched with 150 μl ice cold methanol. Aliquots were incubated ≧1 h at −20° C. for protein precipitation. After precipitation, samples were centrifuged and remaining supernatant was used for analysis with LC-MS/MS. Half life of the compounds, speed of metabolism or intrinsic clearance (Clint), and contribution to metabolism of CYP and STS metabolism were calculated based on the data obtained at each time point.
In general terms: Liver microsomes are vesicles of endoplasmic reticulum, rich in cytochrome P450 enzymes.

The test system of data set [4] is LNCaP. Briefly: In vitro direct cytotoxicity, Cell titer Blue viability, 72 hrs. The format is cell-based. The protocol: (§1) Cells were harvested, washed, re-suspended into growth medium and counted.
(§2) Stocks of all compounds were then serially diluted. […] Positive control was Taxotere. Taxotere was diluted in 100% DSMO to give a stock concentration of 1 mM. Stock was serially diluted. Final concentrations to which cells were exposed were 1000, 333.3, 111.1, 37.0, 12.3, 4.1, 1.4, 0.5, and 0.2 nM.

The subject of data set [5] is DU-145. Described as above. The format is cell-based. Here is the method: as §1, §2
Data set [6] can be described thus: Metabolites in plasma after oral and intravenous administration, LC-MS/MS.
Protocol: Metabolites were identified after oral and intravenous administration of the compounds.
Each group consisted of three rats, giving a total of 12 animals. Compounds were dosed at 10 mg/kg for both oral and intravenous administration. A 0.9% saline solution was used as vehicle for oral and intravenous administration.
Prior to intravenous administration, the solution was filtered through a 0.22 μM filter. Oral dosing was performed using a oral gavage. Tail vein injection was used for intravenous administration.
At 0.5, 1, 2, 4, 6 and 8 hrs post administration, 0.25 ml blood was drawn from the animals and immediately transferred to prechilled microcentrifuge tubes containing 4 μl of K2-EDTA to prevent coagulation. Plasma was obtained by centrifugation of the plasma and stored at −70° C. until analysis. Plasma drawn from each individual rat was pooled according to the following schedule:
The pooled samples were analyzed using LC-MS/MS and the relative percentage of each metabolite in the pooled sample was measured on the basis of the mass spectrometric peak areas of the parent and its metabolites in the plasma.
Data set [7] deals with MDA-MB-231 Dlux. As to the kind of experiment: Orthotopic spontaneous metastasis breast model, whole body bioluminescence. Format: in vivo, female MF-1 nude mice. The conditions noted are these: for total flux, whole body bioluminescence: mono-Sulfestrol 60 mg/kg, di-Sulfestrol 80 mg/kg orally once a day. The protocol:
Female MF-1 nude mice (HsdOla:MF1-Foxn1nu, Harlan, UK) were divided into 3 groups of each 8 mice (n=8):
The mice were 5-6 weeks old at the start of the study and were maintained in sterile isolators within a barriered unit illuminated by fluorescent lights set to give a 12 hour light-dark cycle (on 07.00, off 19.00). The room was air-conditioned to maintain an air temperature range of 23±2° C. Sterile irradiated 2019 rodent diet (Harlan Teklad UK, product code Q219DJ1R2) and autoclaved water were offered ad libitum.
The MDA-MB-231 Dlux cells were maintained in vitro in RPMI containing 2 mM L-Glut and (Life Technologies, UK) and 10% (v/v) heat-inactivated foetal bovine serum (Sigma, Poole, UK) at 37° C. in 5% CO2 and humidified conditions. Cells were treated with Zeocin once a week at 0.4 mg/mL.
On the day of initiation cells were harvested from semi-confluent monolayers with 0.05% Trypsin-EDTA, washed twice in the culture medium and counted. Cells with viability of >90% were re-suspended, for in vivo administration, in 1:1 PBS:Matrigel at 2×10^6 cells/0.1 mL. Prior to injection, the cell suspension was homogenized and 0.1 mL of cell suspension was drawn into a 1 mL syringe. The cell suspension was then injected orthotopically into the lower left-side 2nd mammary fat pad of each mouse under anaesthesia (Medetomidine/Ketamine).
On day 7 after initiation and every six days thereafter, the mice were injected (s.c.) with 150 mg/kg D-Luciferin. 10 minutes following administration of D-Luciferin mice were anaesthetised and 15 minutes after administration they were placed into an imaging chamber (Spectrum CT) and imaged for luminescence (ventral view; whole body and shielding of the primary tumor). Images were captured and processed by Living Image 4.3.1 software (Caliper LS, US.).
On day 7 after initiation mice were assigned to groups such that there was a uniform mean bioluminescent signal between the groups.

Setting [8] is: + NADPH + 667-Coumate (STS inactive, CYP active).
Setting [9] is: nothing added (STS active, CYP inactive).

Broadly, the IC50 is the concentration needed to halve the response being measured. Take “4-(4-(4-oxidophenyl)hex-3-en-3-yl)phenyl sulfate [Mono-Sulfestrol]”: the “cytotoxicity in vitro (in words)” value in data set [1] (MCF7) is “cytotoxic”; in data set [4], “inactive”; in data set [5] (DU-145) it was “inactive”. Besides, the 50% inhibitory concentration (IC50) in data set [1] (read-out: IC50 value, MCF7, hormone-dependent breast cancer cell line, 72 hrs) turned out to be 85 µM. Also, the “Mono-Sulfestrol concentration in pooled plasma sample” value in data set [2] (intravenous) is 630.0 ng/ml and 1.5 μM; in data set [2] (oral), 1150.6 ng/ml and 2.7 μM. In data set [3], the “metabolism pathway in human liver microsomes (in words)” value is “metabolized by both STS and CYP enzymes”. Moreover, the figures for the Clint in data set [3] (setting [8]) and in data set [3] (setting [9]) were 51 and 22, respectively. In addition, the figures for the Contribution to metabolism in data set [3] (setting [8]) and in data set [3] (setting [9]) were 44% and 19%, respectively. For the same substance, the Half-life is 27 min in data set [3] (setting [8]) and 63 min in data set [3] (setting [9]). The IC50 value entry in data set [4] (hormone-dependent prostate cancer cell line, 72 hrs) is on record as “Not active”; in data set [5] (DU-145, hormone-independent prostate cancer cell line, 72 hrs), “Not active”. Further, in data set [6] (10 mg/kg oral and intravenous), the “metabolic fate in rat plasma (in words)” value is on record as “undergoes minimal metabolic processing”. Further, the figures for the “Relative Abundance” value in data set [6] (pooled rat plasma after Mono-Sulfestrol 10 mg/kg IV) and in data set [6] (pooled rat plasma after Mono-Sulfestrol 10 mg/kg PO) were “IV: 86.99%” and “PO: 91.91%”, respectively. Besides, the “total flux, whole body bioluminescence” value in data set [7] (Day 7 (before start of treatment)) is given as 1.72 10^9 photons/second; in data set [7] (Day 13), 5.89 10^9 photons/second; in data set [7] (Day 19), 9.22 10^9 photons/second. In addition, the “effect on tumor progression (in words)” value in data set [7] (oral, MDA-MB-231 Dlux in mice) is “tumor progression inhibiting effect”.
